Data set [1] is described as follows: Solubility in organic solvents via HPTLC (after 24 hours and 7 days). Type of data set: physicochemical. Here is the method: One way of processing the materials of the invention is from solution. In addition, it is a feature of materials of the invention that their […] stability is elevated, as apparent from the long-term solubility data in Table 1.
Method of Determining Solubility Via HPTLC
Sample preparation: The material is weighed out in two 25 mg portions (W1, W2), 0.5 ml of solvent is added, and the mixture is shaken at 60° C. for 60 minutes and then at 25° C. and 600 rpm for 24 h. When the solution is clear, more solid material is added until a saturated solution is formed. After being cooled to room temperature, the samples are filtered through a syringe filter (0.2 μm). The solutions are stored in glass vials at room temperature for 7 days, and the solubility is determined by HPTLC on days 1 and 7. For this purpose, the filtered solutions are diluted.
Calibration: Making up a standard solution: about 6 mg of substance are dissolved in 20 ml of 2-methyl-THF. If it is not possible to dissolve the material under these conditions, the concentration can be reduced. The stock solution is diluted for the calibration (standardization).
Chromatographic conditions (HPTLC): plate: HPTLC RP 18 F254, 10×20 cm eluent: methanol/2-methyl-THF 70/30 (V/V)
HPTLC measurement: The HPTLC plate is scanned by a TLC scanner, peaks are integrated and a calibration function is determined.

A short description of data set [2]: Baking of emission layer film at elevated temperature: state of film. Type of data set: physicochemical. As to conditions: Ref. temp. 150, elevated temp. 180; EML mixture per Table 5. The source says:
The production of the corresponding OLED components is described below.
The emission layer is composed of at least one matrix material (host material) and an emitting dopant (emitter). In addition, it is possible to use mixtures of a plurality of matrix materials and co-dopants. Details given in such a form as TMM-A (92%):dopant (8%) mean here that the material TMM-A is present in the emission layer in a proportion by weight of 92% and dopant in a proportion by weight of 8%. The mixture for the emission layer is dissolved in toluene or optionally chlorobenzene. The typical solids content of such solutions is about 17 g/I when, as here, the layer thickness of 60 nm which is typical of a device is to be achieved by means of spin-coating. The layers are spun on in an inert gas atmosphere, argon in the present case, and baked for 10 minutes.

Some results are limits rather than exact numbers.

`c1ccc(-c2cc(-c3ccccc3)cc(-c3cccc(-c4cccc(C5(c6cccc(-c7cccc(-c8cc(-c9ccccc9)cc(-c9ccccc9)c8)c7)c6)c6cc7c(cc6-c6c5ccc5c6-c6ccccc6C56c5ccccc5-c5ccccc56)OCO7)c4)c3)c2)cc1` [Compound M-0226]: the “Solubility after 24 hours, Cyclohexylbenzene” value in data set [1] (cyclohexylbenzene, 24 hours, room temperature) was <30 mg/mL. In addition, in data set [1] (cyclohexylbenzene, 7 days storage at room temperature), the “Solubility after 7 days, Cyclohexylbenzene” value is <25 mg/mL. The “Solubility after 24 hours, Mesitylene” value in data set [1] (mesitylene, 24 hours, room temperature) is <20 mg/mL. Moreover, the “Solubility after 7 days, Mesitylene” value in data set [1] (mesitylene, 7 days storage at room temperature) was <20 mg/mL. Also, the “Solubility after 24 hours, Tetralin” value in data set [1] (tetralin, 24 hours, room temperature) was <30 mg/mL. In addition, the “Solubility after 7 days, Tetralin” value in data set [1] (tetralin, 7 days storage at room temperature) was <25 mg/mL. Besides, the “solubility in toluene and mesitylene compared with B-2” value in data set [1] (toluene and mesitylene, versus B-2) is reported as “significantly better”. Besides, the “Solubility after 24 hours, Toluene” value in data set [1] (toluene, 24 hours, room temperature) is <20 mg/mL. In addition, in data set [1] (toluene, 7 days storage at room temperature), the “Solubility after 7 days, Toluene” value is <20 mg/mL. The “long-term stability of the solutions compared with B-2” value in data set [1] (versus B-2) is reported as “significantly better”. Moreover, in data set [2], the “State of film after baking at elevated temp.” value is listed as “clear”.

These data come from patent publication US12279521B2, “Materials for organic electroluminescent devices” (Merck Patent GmbH, priority 2019, dated 2025).
